From patent publication US12084430B2, “Tricyclic urea compounds as JAK2 V617F inhibitors” (Incyte Corporation, priority 2022, dated 2024)
Where two headings read alike, the source gives them in different places.

What was measured:
[1] = biological target: T1, catalytic domain (JH1, amino acids 826-1132) of human JAK2 (Homo sapiens, UniProt O60674); experiment: JAK2 LanthaScreen JH1 binding assay; conditions: read-out: JH1 Bind IC50
T1 construct: catalytic domain (JH1, amino acids 826-1132) of human JAK2; FLAG (N); biotin (biotinylated); purchased Carna Biosciences 08-445-20N; host or cells: baculovirus expression system
Protocol: Example A. JAK2 LanthaScreen […] Binding Assay
JAK2 JH1 binding assay utilizes catalytic domain (JH1, amino acids 826-1132) of human JAK2 expressed as N-terminal FLAG-tagged, biotinylated protein in a baculovirus expression system (Carna Biosciences, Product #08-445-20N). The assay was conducted in black 384-well polystyrene plates in a final reaction volume of 20 μL. JAK2 JH1 (1.5 nM) was incubated with compounds (100 nL serially diluted in DMSO) in the presence of 50 nM fluorescent JAK2-JH1 tracer and 0.5 nM Streptavidin-Tb cryptate (Cisbio Part #610SATLB) in assay buffer (50 mM Tris, pH=7.5, 10 mM MgCl2, 0.01% Brij-35, 0.1% BSA, 1 mM EGTA, 5% Glycerol and 5 mM DTT). Non-specific binding was accessed in the presence of 2 mM ATP. After incubation for 2 hours at 25° C., LanthaScreen signals were read on a PHERAstar FS plate reader (BMG LABTECH). Data was analyzed with IDBS XLfit and GraphPad Prism 5.0 software using a four parameter dose response curve to determine IC50 for each compound.

[2] = biological target: T2, FLT3 (Homo sapiens, UniProt P36888); experiment: FLT3 enzymatic assay; format: biochemical; conditions: 1 mM ATP
T2 sequence (P36888 27-993): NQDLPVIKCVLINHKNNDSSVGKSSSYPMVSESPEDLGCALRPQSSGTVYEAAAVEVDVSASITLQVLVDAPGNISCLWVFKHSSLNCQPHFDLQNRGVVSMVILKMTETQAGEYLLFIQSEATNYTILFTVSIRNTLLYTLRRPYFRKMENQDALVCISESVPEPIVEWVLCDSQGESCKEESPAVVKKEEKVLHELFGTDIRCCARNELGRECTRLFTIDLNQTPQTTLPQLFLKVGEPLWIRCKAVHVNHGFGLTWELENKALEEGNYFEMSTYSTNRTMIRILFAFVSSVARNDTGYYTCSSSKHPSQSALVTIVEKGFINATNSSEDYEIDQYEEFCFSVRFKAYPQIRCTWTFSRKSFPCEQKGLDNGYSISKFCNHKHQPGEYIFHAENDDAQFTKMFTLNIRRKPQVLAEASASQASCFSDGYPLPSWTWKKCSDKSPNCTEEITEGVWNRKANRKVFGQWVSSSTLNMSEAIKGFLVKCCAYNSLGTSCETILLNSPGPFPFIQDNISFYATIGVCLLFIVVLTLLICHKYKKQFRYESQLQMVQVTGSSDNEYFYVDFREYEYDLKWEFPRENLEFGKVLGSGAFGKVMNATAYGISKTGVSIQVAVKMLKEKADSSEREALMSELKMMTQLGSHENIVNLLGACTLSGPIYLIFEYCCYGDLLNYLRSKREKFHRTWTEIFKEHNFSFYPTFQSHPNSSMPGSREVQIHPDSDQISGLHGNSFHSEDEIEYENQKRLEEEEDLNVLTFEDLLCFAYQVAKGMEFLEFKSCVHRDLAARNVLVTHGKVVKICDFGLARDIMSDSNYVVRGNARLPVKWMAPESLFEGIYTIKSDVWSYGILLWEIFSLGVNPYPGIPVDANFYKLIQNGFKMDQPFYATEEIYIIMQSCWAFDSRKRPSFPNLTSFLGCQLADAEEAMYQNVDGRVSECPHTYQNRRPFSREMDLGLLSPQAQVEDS
Method in brief: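 Kinase reaction at room temperature in HEPES 50 mM pH 7.0 with 10 mM MgCl2, 1 mM DTT: 0.011 nM FLT3, 1 mM ATP, 500 nM biotinylated TK substrate, 0.5% DMSO. After 60 min, HTRF read as 665/620 nm ratio; IC50 from fit of percent control activity versus log concentration.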

[3] = In vivo pharmacokinetics, rat; parameters: species or system Sprague Dawley rats; conditions: male, Sprague Dawley, plasma, oral 3.0 mg/kg
Protocol: Example H. In Vivo Pharmacokinetics
Test compounds were administered to male Sprague Dawley rats or male and female Cynomolgus monkeys intravenously or via oral gavage. For intravenous (IV) dosing, test compounds were dosed at 1 mg/kg using a formulation of 10% dimethylacetamide (DMAC), 10% propylene glycol (PG) in acidified saline via IV bolus for rat or 10 min IV infusion for monkey. For oral (PO) dosing, test compounds were dosed at 3.0 mg/kg using 5% DMAC in 0.5% methylcellulose in citrate buffer (pH˜2.5). Blood samples were collected at predose and various time points up to 24 hours postdose. All blood samples were collected using EDTA as the anticoagulant and centrifuged to obtain plasma samples. The plasma concentrations of test compounds were determined by LC-MS/MS methods. The measured plasma concentrations were used to calculate PK parameters by standard noncompartmental methods using Phoenix® WinNonlin software program (version 8.0, Pharsight Corporation) or similar software. In rats and monkeys, cassette dosing of test compounds were conducted to obtain preliminary PK parameters. In vivo pharmacokinetic experiments with male beagle dogs may be performed under the conditions described above.

T1 sequence (O60674 826-1132): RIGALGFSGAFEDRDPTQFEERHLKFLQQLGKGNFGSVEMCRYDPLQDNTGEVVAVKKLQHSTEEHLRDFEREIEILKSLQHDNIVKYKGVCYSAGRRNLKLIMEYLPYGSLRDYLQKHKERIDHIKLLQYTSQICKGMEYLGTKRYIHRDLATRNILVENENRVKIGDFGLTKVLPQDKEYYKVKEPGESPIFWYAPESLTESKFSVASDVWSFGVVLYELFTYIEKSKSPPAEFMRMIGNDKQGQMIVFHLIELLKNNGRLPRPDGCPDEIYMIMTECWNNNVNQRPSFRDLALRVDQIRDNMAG

SMILES | IC50 ([1]; Table A) | IC50 ([1]; Table C) | IC50 [2] | AUC [3]
[2H]C([2H])([2H])n1cc(-c2[nH]c3ncc4c(c3c2-c2ccc3c(cnn3CC(F)F)c2)n([C@@H]2CC[C@@H](NC(=O)OC)C2)c(=O)n4C)c(F)n1 [Example 18, Methyl ((1R,3R)-3-(8-(1-(2,2-difluoroethyl)-1H-indazol-5-yl)-7-(3-fluoro-1-(methyl-d3)-1H-pyrazol-4-yl)-3-methyl-2-oxo-3,6-dihydroimidazo[4,5-d]pyrrolo[2,3-b]pyridin-1(2H)-yl)cyclopentyl)carbamate] | > 1 µM | > 1 µM | 1.25 to 2.5 µM | 
[2H]C([2H])([2H])n1ncc2cc(-c3c(-c4cn(C([2H])([2H])C([2H])([2H])[2H])nc4F)[nH]c4ncc5c(c34)n([C@@H]3CC[C@@H](NC(=O)OC)C3)c(=O)n5C([2H])([2H])[2H])ccc21 [Example 15, Methyl ((1R,3R)-3-(7-(1-(ethyl-d5)-3-fluoro-1H-pyrazol-4-yl)-3-(methyl-d3)-8-(1-(methyl-d3)-1H-indazol-5-yl)-2-oxo-3,6-dihydroimidazo[4,5-d]pyrrolo[2,3-b]pyridin-1(2H)-yl)cyclopentyl)carbamate] | > 1 µM | > 1 µM | 0.25 to 1.25 µM | 0.5 to 1.5 µM·h
[2H]C([2H])([2H])n1c(=O)n([C@@H]2CC[C@@H](NC(=O)OC)C2)c2c3c(-c4ccc5c(c4)COC5(C)C)c(-c4cn(CC)nc4F)[nH]c3ncc21 [Example 20, Methyl ((1R,3R)-3-(8-(1,1-dimethyl-1,3-dihydroisobenzofuran-5-yl)-7-(1-ethyl-3-fluoro-1H-pyrazol-4-yl)-3-(methyl-d3)-2-oxo-3,6-dihydroimidazo[4,5-d]pyrrolo[2,3-b]pyridin-1(2H)-yl)cyclopentyl)carbamate] | > 1 µM | > 1 µM | > 2.5 µM | 
[2H]C([2H])([2H])n1c(=O)n([C@@H]2CC[C@@H](NC(=O)OC)C2)c2c3c(-c4ccc5c(c4)COC5(C)C)c(-c4cn(C([2H])([2H])C([2H])([2H])[2H])nc4F)[nH]c3ncc21 [Example 19, Methyl ((1R,3R)-3-(8-(1,1-dimethyl-1,3-dihydroisobenzofuran-5-yl)-7-(1-(ethyl-d5)-3-fluoro-1H-pyrazol-4-yl)-3-(methyl-d3)-2-oxo-3,6-dihydroimidazo[4,5-d]pyrrolo[2,3-b]pyridin-1(2H)-yl)cyclopentyl)carbamate] | > 1 µM | > 1 µM | > 2.5 µM | 
[2H]C([2H])([2H])n1c(=O)n([C@@H]2CC[C@@H](NC(=O)OC)C2)c2c3c(-c4ccc5c(c4)COC5(C)C)c(-c4cn(CC(F)F)nc4F)[nH]c3ncc21 [Example 12, Methyl ((1R,3R)-3-(7-(1-(2,2-difluoroethyl)-3-fluoro-1H-pyrazol-4-yl)-8-(1,1-dimethyl-1,3-dihydroisobenzofuran-5-yl)-3-(methyl-d3)-2-oxo-3,6-dihydroimidazo[4,5-d]pyrrolo[2,3-b]pyridin-1(2H)-yl)cyclopentyl)carbamate] | > 1 µM | > 1 µM | > 2.5 µM | 
[2H]C([2H])([2H])n1cc(-c2[nH]c3ncc4c(c3c2-c2ccc3c(c2)COC3(C)C)n([C@@H]2CC[C@@H](NC(=O)OC)C2)c(=O)n4C)c(F)n1 [Example 11, Methyl ((1R,3R)-3-(8-(1,1-dimethyl-1,3-dihydroisobenzofuran-5-yl)-7-(3-fluoro-1-(methyl-d3)-1H-pyrazol-4-yl)-3-methyl-2-oxo-3,6-dihydroimidazo[4,5-d]pyrrolo[2,3-b]pyridin-1(2H)-yl)cyclopentyl)carbamate] | > 1 µM | > 1 µM | > 2.5 µM | 
[2H]C([2H])([2H])n1cc(-c2[nH]c3ncc4c(c3c2-c2ccc3c(cnn3C(C)C)c2)n([C@@H]2CC[C@@H](NC(=O)OC)C2)c(=O)n4C([2H])([2H])[2H])c(F)n1 [Example 13, Methyl ((1R,3R)-3-(7-(3-fluoro-1-(methyl-d3)-1H-pyrazol-4-yl)-8-(1-isopropyl-1H-indazol-5-yl)-3-(methyl-d3)-2-oxo-3,6-dihydroimidazo[4,5-d]pyrrolo[2,3-b]pyridin-1(2H)-yl)cyclopentyl)carbamate] | > 1 µM | > 1 µM | > 2.5 µM | 0.5 to 1.5 µM·h
[2H]C([2H])([2H])n1cc(-c2[nH]c3ncc4c(c3c2-c2ccc3c(cnn3C(C)C)c2)n([C@@H]2CC[C@@H](NC(=O)OC)C2)c(=O)n4C)c(F)n1 [Example 16, Methyl ((1R,3R)-3-(7-(3-fluoro-1-(methyl-d3)-1H-pyrazol-4-yl)-8-(1-isopropyl-1H-indazol-5-yl)-3-methyl-2-oxo-3,6-dihydroimidazo[4,5-d]pyrrolo[2,3-b]pyridin-1(2H)-yl)cyclopentyl)carbamate] | > 1 µM | > 1 µM | 1.25 to 2.5 µM | 
COc1nn(C)cc1-c1[nH]c2ncc3c(c2c1-c1ccc2c(cnn2C)c1)n([C@H]1CC[C@@H](CC#N)CC1)c(=O)n3C [E, reference compound] |  |  | 0.25 to 1.25 µM | 
[2H]C([2H])([2H])n1cc(-c2[nH]c3ncc4c(c3c2-c2cc(F)c3c(cnn3C([2H])([2H])[2H])c2)n([C@@H]2CC[C@@H](NC(=O)OC)C2)c(=O)n4C([2H])([2H])[2H])c(F)n1 [Example 17, Methyl ((1R,3R)-3-(8-(7-fluoro-1-(methyl-d3)-1H-indazol-5-yl)-7-(3-fluoro-1-(methyl-d3)-1H-pyrazol-4-yl)-3-(methyl-d3)-2-oxo-3,6-dihydroimidazo[4,5-d]pyrrolo[2,3-b]pyridin-1(2H)-yl)cyclopentyl)carbamate] | > 1 µM | > 1 µM | 1.25 to 2.5 µM | 
[2H]C([2H])([2H])n1ncc2cc(-c3c(-c4cn(C([2H])(C([2H])([2H])[2H])C([2H])([2H])[2H])nc4F)[nH]c4ncc5c(c34)n([C@@H]3CC[C@@H](NC(=O)OC)C3)c(=O)n5C([2H])([2H])[2H])ccc21 [Example 21, Methyl ((1R,3R)-3-(7-(3-fluoro-1-(propan-2-yl-d7)-1H-pyrazol-4-yl)-3-(methyl-d3)-8-(1-(methyl-d3)-1H-indazol-5-yl)-2-oxo-3,6-dihydroimidazo[4,5-d]pyrrolo[2,3-b]pyridin-1(2H)-yl)cyclopentyl)carbamate] | > 1 µM | > 1 µM | 1.25 to 2.5 µM | 
[2H]C([2H])([2H])n1cc(-c2[nH]c3ncc4c(c3c2-c2ccc3c(cnn3CC(F)F)c2)n([C@@H]2CC[C@@H](NC(=O)OC)C2)c(=O)n4C([2H])([2H])[2H])c(F)n1 [Example 14, Methyl ((1R,3R)-3-(8-(1-(2,2-difluoroethyl)-1H-indazol-5-yl)-7-(3-fluoro-1-(methyl-d3)-1H-pyrazol-4-yl)-3-(methyl-d3)-2-oxo-3,6-dihydroimidazo[4,5-d]pyrrolo[2,3-b]pyridin-1(2H)-yl)cyclopentyl)carbamate] | > 1 µM | > 1 µM | 1.25 to 2.5 µM | 0.5 to 1.5 µM·h
